Values of other authors in patent US20250325480A1, “Lipid Nanoparticle Compositions and Methods For Formulating Insoluble Drugs” (RESPIRERX PHARMACEUTICALS, INC., priority 2022, published 2025).

Assays:
[1] = not given; remark: listed apart in the source

CCCCCc1cc(O)c2c(c1)OC(C)(C)[C@@H]1CCC(C)=C[C@@H]21 [Dronabinol, (−)-trans-Δ^9-tetrahydrocannabinnol]
Metabolic breakdown upon first pass through the liver (as presently formulated): approximately 80%
Half-life (in vivo): 2 to 3 h
Adverse side effects ([1]; 10 mg dose, Marinol package insert): unacceptable adverse side effects
OSA alleviating effects ([1]; 2.5 and 10 mg doses, first 4 hours of 8-hour test period): therapeutically equivalent OSA alleviating effects
Therapeutic effects in OSA ([1]; second 4 hours of 8-hour test period): only the 10 mg dose produced therapeutic effects
